Strand notation (5' to 3'): a small letter for the sugar, then the base; units joined by * are phosphorothioate-linked, units joined directly phosphodiester-linked; [ ] holds rarer units or linkages, { } end groups; capitals alone tell only the bases. e = 2'-O-(2-methoxyethyl) (MOE); k = constrained ethyl (cEt); [5mC] = 5-methylcytosine; d = 2'-deoxy (DNA); m = 2'-O-methyl
System: Yap1 mRNA
Assay: Antisense inhibition of human Yap1 in SNU-449 cells by modified oligonucleotides, single dose (Example 5, RTS36584)
Type: cell-based
In short: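 Values are % of untreated control: Yap1 mRNA by quantitative RT-PCR (RTS36584), normalized to RIBOGREEN total RNA. Oligonucleotides were dosed at 2,000 nM, free uptake, in SNU-449 cells, with roughly 48 h exposure before RNA isolation.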

[1] = Table 50, Yap1 mRNA remaining as percent of untreated control (UT), SNU-449 cells, single dose
[2] = Table 52, Yap1 mRNA, modified oligonucleotides targeting SEQ ID NO: 1 and 2
[3] = Table 40 (separate experiment), SNU-449 cells, 10,000 cells per well, free uptake, 2,000 nM oligonucleotide, approx. 48 hours, RTS36584, normalized to RIBOGREEN, Yap1 mRNA relative to untreated control
[4] = Table 44 experiment, SNU-449 cells, 10,000 cells per well, free uptake, 2,000 nM, approximately 48 hours, RTS36584, Yap1 mRNA normalized to RIBOGREEN, relative to untreated control cells
[5] = Table 46, Yap1 mRNA as percent of untreated control, SNU-449 cells, single dose
[6] = Table 48, Yap1 mRNA level relative to untreated control, modified oligonucleotides targeting SEQ ID NO.: 1 and 2
[7] = Table 51, Yap1 mRNA remaining as percent of untreated control (UT), SNU-449 cells, single dose
[8] = Table 45, Yap1 mRNA as percent of untreated control, SNU-449 cells, single dose
[9] = Table 39, SNU-449 cells, 10,000 cells per well, free uptake, 2,000 nM oligonucleotide, approx. 48 hours, RTS36584, normalized to RIBOGREEN, Yap1 mRNA relative to untreated control
[10] = Table 49, Yap1 mRNA level relative to untreated control, modified oligonucleotides targeting SEQ ID NO.: 1 and 2
[11] = Table 42 (separate experiment), SNU-449 cells, 10,000 cells per well, free uptake, 2,000 nM modified oligonucleotide, approximately 48 hours, RTS36584, normalized to RIBOGREEN, Yap1 mRNA relative to untreated control cells
[12] = Table 43 experiment, SNU-449 cells, 10,000 cells per well, free uptake, 2,000 nM, approximately 48 hours, RTS36584, Yap1 mRNA normalized to RIBOGREEN, relative to untreated control cells

1198625 (kG*kA*k[5mC]*dT*dA*dA*dG*dT*dA*dA*dG*dG*kT*kT*kT*e[5mC]; antisense) [Compound 1198625]
YAP1 (% UT) [1]: 64 % UT

1200872 (kA*kG*kA*d[5mC]*dT*mA*dA*dG*dT*dA*dA*dG*dG*kT*kT*kT; antisense) [Compound 1200872]
YAP1 (% UT) [2]: 98 % UT

1198782 (antisense kT*eG*kT*dA*dA*dT*dA*dT*dT*dG*d[5mC]*dA*eA*eT*k[5mC]*kT) [Compound 1198782]
YAP1 (% UTC) [3]: 61 % UTC

1198587 (antisense kG*kA*kT*dT*dT*dA*dG*dG*dA*dT*dG*d[5mC]*kA*kT*kG*eG) [Compound 1198587]
YAP1 (% UT) [1]: 41 % UT

1198902 (kT*kT*dA*dG*dA*dG*dT*dA*dT*dG*dT*kG*dG*k[5mC]*dA*kA; antisense) [Compound 1198902]
YAP1 (% UTC) [4]: 13 % UTC

1198474 (antisense kT*kA*dT*dA*dA*d[5mC]*dT*dG*dG*dG*d[5mC]*eA*kA*eA*kT*eT) [Compound 1198474]
YAP1 (% UTC) [4]: 68 % UTC

1198835 (kT*kT*dA*dA*dG*d[5mC]*dA*d[5mC]*dT*dT*dT*kT*eA*k[5mC]*eA*kT; antisense) [Compound 1198835]
YAP1 (% UT) [5]: 85 % UT

1198287 (kA*kA*kA*dT*dT*dG*dT*d[5mC]*dT*d[5mC]*dA*dT*kG*e[5mC]*k[5mC]*eT; antisense) [Compound 1198287]
YAP1 (% UT) [6]: 13 % UT

1197310 (kT*kA*kT*dG*mU*dA*dA*dT*dA*dT*dT*dG*d[5mC]*kA*kA*kT; antisense) [Compound 1197310]
YAP1 (% UT) [7]: 109 % UT

1198866 (kT*kA*dA*dT*dA*dT*dT*dG*d[5mC]*dA*dA*kT*e[5mC]*kT*eG*kT; antisense) [Compound 1198866]
YAP1 (% UT) [5]: 60 % UT

1198846 (kT*kT*dA*dG*dG*dA*dT*dG*d[5mC]*dA*dT*kG*eG*kT*eT*kT; antisense) [Compound 1198846]
YAP1 (% UT) [5]: 34 % UT

1198606 (antisense kT*kG*kT*dA*dA*dT*dA*dT*dT*dG*d[5mC]*dA*kA*kT*k[5mC]*eT) [Compound 1198606]
YAP1 (% UT) [1]: 25 % UT

1197237 (antisense kT*kA*kT*dA*mA*d[5mC]*dT*dG*dG*dG*d[5mC]*dA*dA*kA*kT*kT) [Compound 1197237]
YAP1 (% UT) [7]: 74 % UT

1197238 (antisense kA*kG*kG*dT*mA*dT*dA*dA*d[5mC]*dT*dG*dG*dG*k[5mC]*kA*kA) [Compound 1197238]
YAP1 (% UT) [7]: 43 % UT

1198956 (kT*kA*dT*dG*dT*dA*dA*dT*dA*dT*dT*kG*d[5mC]*kA*dA*kT; antisense) [Compound 1198956]
YAP1 (% UTC) [8]: 76 % UTC

1197233 (antisense kT*kA*kG*dA*mG*dT*dA*dT*dG*dT*dG*dG*d[5mC]*kA*kA*kT) [Compound 1197233]
YAP1 (% UT) [1]: 36 % UT

1198402 (kG*dG*dA*dA*dG*dA*dT*d[5mC]*dT*dG*dA*kA*eA*k[5mC]*eT*k[5mC]; antisense) [Compound 1198402]
YAP1 (% UTC) [9]: 32 % UTC

1198555 (antisense kA*kT*kT*dA*dG*dA*dG*dT*dA*dT*dG*dT*kG*kG*k[5mC]*eA) [Compound 1198555]
YAP1 (% UT) [10]: 11 % UT

1198885 (k[5mC]*kT*dA*dA*dG*dT*dA*dA*dG*dG*dT*kT*eT*k[5mC]*e[5mC]*k[5mC]; antisense) [Compound 1198885]
YAP1 (% UT) [5]: 41 % UT

1198954 (kT*kG*dT*dA*dA*dT*dA*dT*dT*dG*d[5mC]*kA*dA*kT*d[5mC]*kT; antisense) [Compound 1198954]
YAP1 (% UTC) [8]: 94 % UTC

1198961 (kA*kA*dA*dG*dT*dG*dT*dA*dT*dG*dT*k[5mC]*dA*kG*dA*kA; antisense) [Compound 1198961]
YAP1 (% UTC) [8]: 12 % UTC

1198225 (k[5mC]*kA*d[5mC]*dT*dT*dT*dT*dA*d[5mC]*dA*dT*eT*eA*eG*kG*kA) [Compound 1198225]
YAP1 (% UTC) [11]: 67 % UTC

1200785 (kA*kT*kT*dG*dT*mC*dT*d[5mC]*dA*dT*dG*d[5mC]*d[5mC]*kT*kT*kA; antisense) [Compound 1200785]
YAP1 (% UT) [7]: 15 % UT

1074461 (kG*kA*kA*dA*dT*dT*dG*dT*d[5mC]*dT*d[5mC]*dA*dT*kG*k[5mC]*k[5mC]) [Compound 1074461]
YAP1 (% UTC) [9]: 7 % UTC
YAP1 (% UTC) [3]: 9 % UTC
YAP1 (% UTC) (Table 41, SNU-449 cells, 10,000 cells per well, free uptake, 2,000 nM modified oligonucleotide, approximately 48 hours, RTS36584, normalized to RIBOGREEN, Yap1 mRNA relative to untreated control cells): 12 % UTC
YAP1 (% UTC) [11]: 11 % UTC
YAP1 (% UTC) [12]: 11 % UTC
YAP1 (% UTC) [4]: 7 % UTC
YAP1 (% UTC) [8]: 9 % UTC
YAP1 (% UT) [5]: 14 % UT
YAP1 (% UT) [6]: 20 % UT
YAP1 (% UT) [10]: 10 % UT
YAP1 (% UT) [1]: 16 % UT
YAP1 (% UT) [7]: 5 % UT
YAP1 (% UT) [2]: 15 % UT
YAP1 (% UT) (Yap1 mRNA, percent of untreated control, modified oligonucleotides targeting SEQ ID NO: 1 and 2, Table 47): 5 % UT

1198712 (kA*kG*dA*d[5mC]*dT*dA*dA*dG*dT*dA*dA*dG*kG*eT*kT*eT; antisense) [Compound 1198712]
YAP1 (% UTC) [11]: 110 % UTC

1198719 (kG*eG*kA*dA*dA*dT*dT*dG*dT*d[5mC]*dT*d[5mC]*eA*eT*kG*k[5mC]; antisense) [Compound 1198719]
YAP1 (% UTC) [3]: 14 % UTC

1198459 (antisense kA*kA*dA*dT*dT*dG*dT*d[5mC]*dT*d[5mC]*dA*eT*kG*e[5mC]*k[5mC]*eT) [Compound 1198459]
YAP1 (% UTC) [12]: 28 % UTC

1197234 (antisense kT*kT*kA*dG*mA*dG*dT*dA*dT*dG*dT*dG*dG*k[5mC]*kA*kA) [Compound 1197234]
YAP1 (% UT) [1]: 24 % UT

1198337 (kT*k[5mC]*kT*dT*dA*dT*dA*dT*dG*dG*dT*dT*kT*eT*kG*eT; antisense) [Compound 1198337]
YAP1 (% UT) [10]: 26 % UT

1198220 (kA*kA*d[5mC]*dA*d[5mC]*dT*dG*dA*dG*dG*dT*eA*eT*eA*kA*k[5mC]; antisense) [Compound 1198220]
YAP1 (% UTC) [12]: 89 % UTC

1198650 (kA*kA*d[5mC]*dA*d[5mC]*dT*dG*dA*dG*dG*dT*dA*kT*eA*kA*e[5mC]) [Compound 1198650]
YAP1 (% UTC) [11]: 88 % UTC

1198255 (k[5mC]*kA*dA*d[5mC]*dT*d[5mC]*dT*dT*dA*dT*dA*eT*eG*eG*kT*kT; antisense) [Compound 1198255]
YAP1 (% UTC) [12]: 84 % UTC

1200838 (kA*kT*kA*dT*dG*mG*dT*dT*dT*dT*dG*dT*dG*kT*kG*kT; antisense) [Compound 1200838]
YAP1 (% UT) [2]: 65 % UT

1198241 (kT*kT*dT*dA*dG*dG*dA*dT*dG*d[5mC]*dA*eT*eG*eG*kT*kT; antisense) [Compound 1198241]
YAP1 (% UTC) [12]: 32 % UTC

1198229 (kT*kT*dA*dA*dG*d[5mC]*dA*d[5mC]*dT*dT*dT*eT*eA*e[5mC]*kA*kT) [Compound 1198229]
YAP1 (% UTC) [11]: 80 % UTC

1198347 (kG*kT*kA*dA*dT*dA*dT*dT*dG*d[5mC]*dA*dA*kT*e[5mC]*kT*eG; antisense) [Compound 1198347]
YAP1 (% UT) [6]: 14 % UT

1198556 (antisense kT*kA*kT*dT*dA*dG*dA*dG*dT*dA*dT*dG*kT*kG*kG*e[5mC]) [Compound 1198556]
YAP1 (% UT) [10]: 25 % UT

1198232 (kT*kT*dT*dG*dG*dA*dA*dG*dA*dT*d[5mC]*eT*eG*eA*kA*kA) [Compound 1198232]
YAP1 (% UTC) [11]: 92 % UTC

1198522 (kT*kA*dT*dG*dT*dA*dA*dT*dA*dT*dT*eG*k[5mC]*eA*kA*eT; antisense) [Compound 1198522]
YAP1 (% UTC) [4]: 37 % UTC

1200839 (kT*kT*kA*dT*dA*mU*dG*dG*dT*dT*dT*dT*dG*kT*kG*kT; antisense) [Compound 1200839]
YAP1 (% UT) [2]: 44 % UT

1197228 (antisense kA*kA*kT*dT*mG*dT*d[5mC]*dT*d[5mC]*dA*dT*dG*d[5mC]*k[5mC]*kT*kT) [Compound 1197228]
YAP1 (% UT) [1]: 25 % UT

1198960 (kA*kA*dG*dT*dG*dT*dA*dT*dG*dT*d[5mC]*kA*dG*kA*dA*kG; antisense) [Compound 1198960]
YAP1 (% UTC) [8]: 6 % UTC

1198853 (kA*kT*dT*d[5mC]*dA*dG*dA*dT*dT*dT*dA*kG*eG*kA*eT*kG; antisense) [Compound 1198853]
YAP1 (% UT) [5]: 105 % UT

1198203 (kG*kG*dA*dA*dA*dT*dT*dG*dT*d[5mC]*dT*e[5mC]*eA*eT*kG*k[5mC]; antisense) [Compound 1198203]
YAP1 (% UTC) [11]: 19 % UTC

1198968 (kA*kG*dT*dA*dA*dG*dG*dT*dT*dT*d[5mC]*k[5mC]*d[5mC]*kA*dG*kA; antisense) [Compound 1198968]
YAP1 (% UTC) [8]: 57 % UTC

1198370 (kT*dG*dT*d[5mC]*dT*d[5mC]*dA*dT*dG*d[5mC]*d[5mC]*kT*eT*kA*eT*kA; antisense) [Compound 1198370]
YAP1 (% UTC) [9]: 20 % UTC

— patent US11214803B2, “Modulators of YAP1 expression” (Ionis Pharmaceuticals, Inc., priority 2019, dated 2022)
